Experimental data reported in patent US4853463A, “Amino acid derivatives” (Kissei Pharmaceutical Co., Ltd., priority 1985, dated 1989).

What was measured:
[1] = molecular target: T1, human renin (Homo sapiens, UniProt P00797); assay: Human renin-sheep renin substrate reaction system in vitro; type: biochemical; details: purified human renin, semipurified sheep renin substrate, pH 7.4, 37° C., 15 minutes
T1 sequence (P00797 67-406): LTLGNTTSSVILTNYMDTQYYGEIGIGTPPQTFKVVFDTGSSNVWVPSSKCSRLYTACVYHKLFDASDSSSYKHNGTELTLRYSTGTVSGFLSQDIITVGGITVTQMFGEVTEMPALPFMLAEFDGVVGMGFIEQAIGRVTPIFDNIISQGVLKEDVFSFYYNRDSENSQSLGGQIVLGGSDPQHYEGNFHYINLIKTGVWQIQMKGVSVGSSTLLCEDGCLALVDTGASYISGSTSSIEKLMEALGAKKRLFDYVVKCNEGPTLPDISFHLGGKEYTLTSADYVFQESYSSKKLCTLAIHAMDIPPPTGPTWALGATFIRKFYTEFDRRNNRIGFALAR
Method: Human renin-sheep renin substrate reaction system in vitro
To a mixture containing 200 μl of a 125 mM pyrophosphate buffer (pH 7.4), 25 μl of a 20 mM aqueous solution of L-phenylalanyl-L-alanyl-L-prolin as an angiotensin converting enzyme inhibitor, 50 μl of semipurified sheep renin substrate (2000 ng angiotensin I/ml), 50 μl of dimethyl sulfoxide solution of an amino acid derivative of the present invention or 50 μl of dimethyl sulfoxide as a control and 150 μl of deionized water was added 25 μl of purified human renin (20-30 ng angiotensin I/ml/hr). The mixture was incubated for 15 minutes on a water bath at 37° C., and the reaction mixture was allowed to stand for 5 minutes on a water bath at 100° C. to stop the reaction. After cooling, 200 μl of the solution were taken out and the amount of angiotensin I produced by the addition of renin was determined by radioimmunoassay. The inhibitory effect was calculated by the following equation. [formula]
The molar concentration which produced a 50% inhibition (IC50) was calculated from the inhibition value obtained, and the results are shown below. [drawing 19]

[2] = molecular target: T1, human renin; assay: Renin inhibitory effect in a human high renin plasma; type: biochemical; parameters: human high renin plasma; from tissue; host or cells: human high renin plasma; details: phosphate buffer pH 7.0, 37° C., 60 minutes
Method: Renin inhibitory effect in a human high renin plasma
The mixture consisted of 500 μl of human high renin plasma, 50 μl of 20 mM L-phenylalanyl-L-alanyl-L-prolin, an angiotensin converting enzyme inhibitor, 350 μl of 0.5 M phosphate buffer (pH 7.0) containing 14 mM EDTA·2Na and 0.3% neomycin and 100 μl of appropriate concentration of amino acid compound of the present invention dissolved in DMSO or DMSO as a control. A 200 μl sample was taken out from the solution, and was cooled at 4° C. in an ice bath. The remaining sample (800 μl) was incubated for 60 minutes at 37° C. in a water bath. A 200 μl of sample was taken out from the incubated mixture, and chilled immediately in an ice bath. The amount of angiotensin I produced in both samples was determined by radioimmunoassay, and the net amount was estimated as a difference between the samples incubated at 37° C. and the sample cooled at 4° C.
The inhibitory effect was calculated by the following equation: [formula]
The molar concentration which produced 50% inhibition (IC50) was calculated from the inhibition value obtained, and the results are shown below. [drawing 32]

[3] = molecular target: T1, human renin; parameters: human high renin plasma; from tissue; host or cells: human high renin plasma; details: reported at 1986 meetings; cited from earlier work
[4] = Hypotensive effect in marmoset; type: in vivo, common marmoset; details: 30 mg/kg oral, furosemide-treated high renin marmoset, Control 84.3 mmHg
Method: Hypotensive effect in marmoset
The experiment was carried out by using common marmoset as described in K. G. Hofbauer et al., Clinical and Experimental hypertension, Vol. A5, Nos. 7 & 8 (1983), pages 1237-1247.
Furosemide was orally administered three times to common marmoset at 15 mg per kilogram per day every other day to create a high renin state. Blood pressure of conscious marmoset was measured 3 days after the last administration of furosemide.
Measurement of blood pressure
A conscious male marmoset weighing 360 g was binded on a monkey chair, and tailarterial pressure was recorded on a pretismograph. The amino acid compound of the present invention, administred orally using a catheter.
(a) Compound: Isopropyl (2RS, 3S)-3-{N-[2-(1-naphthylmethyl)-3-(morpholinocarbonyl)propionyl]-L-alanyl}amino-2-hydroxy-5-methylhexanoate

Row | IC50 [1] [nM] | IC50 [2] [nM] | Structure (SMILES) | further results
1 | 390 | 200 | CC(C)C[C@H](NC(=O)CNC(=O)C(CC(=O)N1CCOCC1)Cc1cccc2ccccc12)C(O)C(=O)OC(C)C (stereo partly drawn) [compound 9] | 
2 | 15 | 13 | COC(=O)CN(C)C(=O)CC(Cc1cccc2ccccc12)C(=O)N[C@@H](C)C(=O)N[C@@H](CC(C)C)C(O)C(=O)OC(C)C (stereo partly drawn) [compound 12] | 
3 |  |  | COC(=O)C(O)C(CC(C)C)NC(=O)[C@H](Cc1c[nH]cn1)NC(=O)C(CC(=O)NCCc1ccccc1)Cc1cccc2ccccc12 (stereo partly drawn) | Human renin inhibitory activity [3]: human renin inhibitory activity
4 | 26 | 7.2 | CC(C)C[C@H](NC(=O)[C@H](CO)NC(=O)C(CC(=O)N1CCOCC1)Cc1cccc2ccccc12)C(O)C(=O)OC(C)C (stereo partly drawn) [compound 8] | 
5 | 130 | 46 | CC(C)C[C@H](NC(=O)CCNC(=O)C(CC(=O)N1CCOCC1)Cc1cccc2ccccc12)C(O)C(=O)OC(C)C (stereo partly drawn) [compound 10] | 
6 | 80 | 61 | CC(C)CCNC(=O)C[C@H](O)[C@H](CC(C)C)NC(=O)[C@H](CC(C)C)NC(=O)C(CC(=O)N1CCOCC1)Cc1cccc2ccccc12 (stereo partly drawn) [No. 4, N-[2-(1-Naphthylmethyl)-3-(morpholinocarbonyl)-propionyl]-L-leucyl-statiyl isoamylamide] | 
7 | 59 | 44 | COC(=O)[C@@H]1CCCN1C(=O)CC(Cc1cccc2ccccc12)C(=O)N[C@@H](C)C(=O)N[C@@H](CC(C)C)C(O)C(=O)OC(C)C (stereo partly drawn) [compound 11] | 
8 | 14 | 16 | CC(C)C[C@H](NC(=O)C(CC(=O)N1CCOCC1)Cc1cccc2ccccc12)C(=O)N[C@@H](CC(C)C)C(O)C(=O)OC(C)C (stereo partly drawn) [compound 2] | 
9 | 30 | 11 | COC(=O)C(O)[C@H](CC(C)C)NC(=O)[C@H](CC(C)C)NC(=O)C(CC(=O)N1CCOCC1)Cc1cccc2ccccc12 (mixture of isomers) [No. 3, Methyl (2RS, 3S)-3-{N-[2-(1-naphthylmethyl)-3-(morpholinocarbonyl)propionyl]-L-leucyl}amino-2-hydroxy-5-methylhexanoate] | 
10 | 26 | 20 | CC(C)C[C@H](NC(=O)[C@H](C)NC(=O)C(CC(=O)N1CCOCC1)Cc1cccc2ccccc12)C(O)C(=O)OC(C)C (mixture of isomers) [No. 1, Isopropyl (2RS, 3S)-3-{N-[2-(1-naphthylmethyl)-3-(morpholinocarbonyl)propionyl]-L-alanyl}amino-2-hydroxy-5-methylhexanoate] | Blood pressure ([4]; 1 hour after administration): 75.8 mmHg; Blood pressure ([4]; 2 hours after administration): 70.0 mmHg; Blood pressure ([4]; 3 hours after administration): 70.0 mmHg; Blood pressure ([4]; 5 hours after administration): 70.0 mmHg; Blood pressure ([4]; 7 hours after administration): 72.6 mmHg
11 | 290 | 510 | CC(C)C[C@H](NC(=O)[C@H](Cc1c[nH]c2ccccc12)NC(=O)C(CC(=O)N1CCOCC1)Cc1cccc2ccccc12)C(O)C(=O)OC(C)C (stereo partly drawn) [compound 7] | 
12 | 48 | 140 | CC(C)C[C@H](NC(=O)[C@H](Cc1ccccc1)NC(=O)C(CC(=O)N1CCOCC1)Cc1cccc2ccccc12)C(O)C(=O)OC(C)C (stereo partly drawn) [compound 6] | 
13 | 6.6 | 3.3 | CC(C)C[C@H](NC(=O)[C@@H](NC(=O)C(CC(=O)N1CCOCC1)Cc1cccc2ccccc12)C(C)C)C(O)C(=O)OC(C)C (stereo partly drawn) [compound 5] | 
